In the NIST ThermoML archive (doi:10.1016/j.fluid.2014.09.014):
Numbers after ± are expanded uncertainties.

Assay: refractive index (other wavelength) (dimensionless); xn = mol fraction of the nth substance listed
Conditions: 101 kPa, Liquid, Standard Abbe refractometry

CC(C)OC(C)C [diisopropyl ether] + CC(C)O
Conditions | refractive index
293.5 K, Wavelength=632.8 nm, x1 = 0.8864 | 1.36832 ± 0.00042
293.5 K, Wavelength=632.8 nm, x1 = 0.8903 | 1.36795 ± 0.00042
293.5 K, Wavelength=632.8 nm, x1 = 0.9113 | 1.36771 ± 0.00042
293.5 K, Wavelength=632.8 nm, x1 = 0.9547 | 1.36732 ± 0.00043
293.5 K, Wavelength=632.8 nm, x1 = 0.973 | 1.36703 ± 0.00043
293.5 K, Wavelength=632.8 nm, x1 = 0.9771 | 1.36706 ± 0.00043
293.5 K, Wavelength=632.8 nm, x1 = 1 | 1.36674 ± 0.00044
293.5 K, Wavelength=644 nm, x1 = 0.0277 | 1.37541 ± 0.00032
293.5 K, Wavelength=644 nm, x1 = 0.0507 | 1.37531 ± 0.00032
293.5 K, Wavelength=644 nm, x1 = 0.051 | 1.37539 ± 0.00032
293.5 K, Wavelength=644 nm, x1 = 0.0717 | 1.37515 ± 0.00032
293.5 K, Wavelength=644 nm, x1 = 0.1528 | 1.37461 ± 0.00032
293.5 K, Wavelength=644 nm, x1 = 0.1553 | 1.37461 ± 0.00032
293.5 K, Wavelength=644 nm, x1 = 0.1938 | 1.3743 ± 0.00033
293.5 K, Wavelength=644 nm, x1 = 0.2029 | 1.37411 ± 0.00033
293.5 K, Wavelength=644 nm, x1 = 0.245 | 1.37374 ± 0.00033
293.5 K, Wavelength=644 nm, x1 = 0.297 | 1.37347 ± 0.00034
293.5 K, Wavelength=644 nm, x1 = 0.2973 | 1.3737 ± 0.00034
293.5 K, Wavelength=644 nm, x1 = 0.3068 | 1.37314 ± 0.00034
293.5 K, Wavelength=644 nm, x1 = 0.398 | 1.37206 ± 0.00035
293.5 K, Wavelength=644 nm, x1 = 0.4609 | 1.3715 ± 0.00035
293.5 K, Wavelength=644 nm, x1 = 0.5434 | 1.37078 ± 0.00036
293.5 K, Wavelength=644 nm, x1 = 0.6032 | 1.37023 ± 0.00037
293.5 K, Wavelength=644 nm, x1 = 0.6371 | 1.36988 ± 0.00038
293.5 K, Wavelength=644 nm, x1 = 0.701 | 1.36928 ± 0.00039
293.5 K, Wavelength=644 nm, x1 = 0.754 | 1.36891 ± 0.00039
293.5 K, Wavelength=644 nm, x1 = 0.791 | 1.36857 ± 0.0004
293.5 K, Wavelength=644 nm, x1 = 0.8296 | 1.36824 ± 0.00041
293.5 K, Wavelength=644 nm, x1 = 0.8864 | 1.36802 ± 0.00042
293.5 K, Wavelength=644 nm, x1 = 0.8903 | 1.36765 ± 0.00042
293.5 K, Wavelength=644 nm, x1 = 0.9113 | 1.36741 ± 0.00042
293.5 K, Wavelength=644 nm, x1 = 0.9547 | 1.36702 ± 0.00043
293.5 K, Wavelength=644 nm, x1 = 0.973 | 1.36673 ± 0.00043
293.5 K, Wavelength=644 nm, x1 = 0.9771 | 1.36675 ± 0.00043
293.5 K, Wavelength=644 nm, x1 = 1 | 1.36644 ± 0.00044
293.5 K, Wavelength=706.5 nm, x1 = 0.0277 | 1.37391 ± 0.00032
293.5 K, Wavelength=706.5 nm, x1 = 0.0507 | 1.37381 ± 0.00032
293.5 K, Wavelength=706.5 nm, x1 = 0.051 | 1.37389 ± 0.00032
293.5 K, Wavelength=706.5 nm, x1 = 0.0717 | 1.37366 ± 0.00032
293.5 K, Wavelength=706.5 nm, x1 = 0.1528 | 1.37313 ± 0.00032
293.5 K, Wavelength=706.5 nm, x1 = 0.1553 | 1.37313 ± 0.00032
293.5 K, Wavelength=706.5 nm, x1 = 0.1938 | 1.37281 ± 0.00033
293.5 K, Wavelength=706.5 nm, x1 = 0.2029 | 1.37263 ± 0.00033
293.5 K, Wavelength=706.5 nm, x1 = 0.245 | 1.37227 ± 0.00033
293.5 K, Wavelength=706.5 nm, x1 = 0.297 | 1.372 ± 0.00034
293.5 K, Wavelength=706.5 nm, x1 = 0.2973 | 1.37222 ± 0.00034
293.5 K, Wavelength=706.5 nm, x1 = 0.3068 | 1.37167 ± 0.00034
293.5 K, Wavelength=706.5 nm, x1 = 0.398 | 1.37061 ± 0.00035
293.5 K, Wavelength=706.5 nm, x1 = 0.4609 | 1.37005 ± 0.00035
293.5 K, Wavelength=706.5 nm, x1 = 0.5434 | 1.36934 ± 0.00036
293.5 K, Wavelength=706.5 nm, x1 = 0.6032 | 1.36879 ± 0.00037
293.5 K, Wavelength=706.5 nm, x1 = 0.6371 | 1.36844 ± 0.00038
293.5 K, Wavelength=706.5 nm, x1 = 0.701 | 1.36784 ± 0.00039
293.5 K, Wavelength=706.5 nm, x1 = 0.754 | 1.36746 ± 0.00039
293.5 K, Wavelength=706.5 nm, x1 = 0.791 | 1.36713 ± 0.0004
293.5 K, Wavelength=706.5 nm, x1 = 0.8296 | 1.3668 ± 0.00041
293.5 K, Wavelength=706.5 nm, x1 = 0.8864 | 1.36658 ± 0.00042
293.5 K, Wavelength=706.5 nm, x1 = 0.8903 | 1.3662 ± 0.00042
293.5 K, Wavelength=706.5 nm, x1 = 0.9113 | 1.36598 ± 0.00042
293.5 K, Wavelength=706.5 nm, x1 = 0.9547 | 1.36559 ± 0.00043
293.5 K, Wavelength=706.5 nm, x1 = 0.973 | 1.36529 ± 0.00043
293.5 K, Wavelength=706.5 nm, x1 = 0.9771 | 1.36532 ± 0.00043
293.5 K, Wavelength=706.5 nm, x1 = 1 | 1.36501 ± 0.00044
298.15 K, Wavelength=404.7 nm, x1 = 0.0277 | 1.38582 ± 0.00032
298.15 K, Wavelength=404.7 nm, x1 = 0.0507 | 1.38573 ± 0.00032
298.15 K, Wavelength=404.7 nm, x1 = 0.051 | 1.38574 ± 0.00032
298.15 K, Wavelength=404.7 nm, x1 = 0.0717 | 1.38551 ± 0.00032
298.15 K, Wavelength=404.7 nm, x1 = 0.1528 | 1.38491 ± 0.00032
298.15 K, Wavelength=404.7 nm, x1 = 0.1553 | 1.38491 ± 0.00032
298.15 K, Wavelength=404.7 nm, x1 = 0.1938 | 1.38463 ± 0.00033
298.15 K, Wavelength=404.7 nm, x1 = 0.2029 | 1.38436 ± 0.00033
298.15 K, Wavelength=404.7 nm, x1 = 0.245 | 1.38392 ± 0.00033
298.15 K, Wavelength=404.7 nm, x1 = 0.297 | 1.38349 ± 0.00034
298.15 K, Wavelength=404.7 nm, x1 = 0.2973 | 1.38372 ± 0.00034
298.15 K, Wavelength=404.7 nm, x1 = 0.3068 | 1.38326 ± 0.00034
298.15 K, Wavelength=404.7 nm, x1 = 0.398 | 1.38211 ± 0.00035
298.15 K, Wavelength=404.7 nm, x1 = 0.4609 | 1.3815 ± 0.00035
298.15 K, Wavelength=404.7 nm, x1 = 0.5434 | 1.38067 ± 0.00036
298.15 K, Wavelength=404.7 nm, x1 = 0.6032 | 1.3801 ± 0.00037
298.15 K, Wavelength=404.7 nm, x1 = 0.6371 | 1.37972 ± 0.00038
298.15 K, Wavelength=404.7 nm, x1 = 0.701 | 1.37906 ± 0.00039
298.15 K, Wavelength=404.7 nm, x1 = 0.754 | 1.37868 ± 0.00039
298.15 K, Wavelength=404.7 nm, x1 = 0.791 | 1.3783 ± 0.0004
298.15 K, Wavelength=404.7 nm, x1 = 0.8296 | 1.37799 ± 0.00041
298.15 K, Wavelength=404.7 nm, x1 = 0.8864 | 1.37775 ± 0.00042
298.15 K, Wavelength=404.7 nm, x1 = 0.8903 | 1.37734 ± 0.00042
298.15 K, Wavelength=404.7 nm, x1 = 0.9113 | 1.37711 ± 0.00042
298.15 K, Wavelength=404.7 nm, x1 = 0.9547 | 1.37676 ± 0.00043
298.15 K, Wavelength=404.7 nm, x1 = 0.973 | 1.37634 ± 0.00043
298.15 K, Wavelength=404.7 nm, x1 = 0.9771 | 1.37629 ± 0.00043
298.15 K, Wavelength=404.7 nm, x1 = 1 | 1.37607 ± 0.00044
298.15 K, Wavelength=435.8 nm, x1 = 0.0277 | 1.38277 ± 0.00032
298.15 K, Wavelength=435.8 nm, x1 = 0.0507 | 1.38268 ± 0.00032
298.15 K, Wavelength=435.8 nm, x1 = 0.051 | 1.38276 ± 0.00032
